From ChEMBL document CHEMBL4145469, “Part II: New candidates of pyrazole-benzimidazole conjugates as checkpoint kinase 2 (Chk2) inhibitors” (Eur J Med Chem, 2018)

Assay: Toxicity in Sprague-Dawley rat assessed as mortality administered as po single dose measured up to 1 month post dose
Type: organism-based
Conditions: in vivo

Cc1nn(-c2ccccc2)c(Oc2ccc(-c3nc4cc([N+](=O)[O-])ccc4[nH]3)cc2)c1/C=N/NC(N)=O
LD50 at 1 month: 500 mg/kg
